Read-outs that look alike come from different tables or passages of the source. Ends that are not written are not given here. MCA = 7-methoxycoumarin-4-acetic acid
Molecular target: T1, purified human α2M (Homo sapiens, UniProt P01023)
T1 sequence (P01023 24-1474): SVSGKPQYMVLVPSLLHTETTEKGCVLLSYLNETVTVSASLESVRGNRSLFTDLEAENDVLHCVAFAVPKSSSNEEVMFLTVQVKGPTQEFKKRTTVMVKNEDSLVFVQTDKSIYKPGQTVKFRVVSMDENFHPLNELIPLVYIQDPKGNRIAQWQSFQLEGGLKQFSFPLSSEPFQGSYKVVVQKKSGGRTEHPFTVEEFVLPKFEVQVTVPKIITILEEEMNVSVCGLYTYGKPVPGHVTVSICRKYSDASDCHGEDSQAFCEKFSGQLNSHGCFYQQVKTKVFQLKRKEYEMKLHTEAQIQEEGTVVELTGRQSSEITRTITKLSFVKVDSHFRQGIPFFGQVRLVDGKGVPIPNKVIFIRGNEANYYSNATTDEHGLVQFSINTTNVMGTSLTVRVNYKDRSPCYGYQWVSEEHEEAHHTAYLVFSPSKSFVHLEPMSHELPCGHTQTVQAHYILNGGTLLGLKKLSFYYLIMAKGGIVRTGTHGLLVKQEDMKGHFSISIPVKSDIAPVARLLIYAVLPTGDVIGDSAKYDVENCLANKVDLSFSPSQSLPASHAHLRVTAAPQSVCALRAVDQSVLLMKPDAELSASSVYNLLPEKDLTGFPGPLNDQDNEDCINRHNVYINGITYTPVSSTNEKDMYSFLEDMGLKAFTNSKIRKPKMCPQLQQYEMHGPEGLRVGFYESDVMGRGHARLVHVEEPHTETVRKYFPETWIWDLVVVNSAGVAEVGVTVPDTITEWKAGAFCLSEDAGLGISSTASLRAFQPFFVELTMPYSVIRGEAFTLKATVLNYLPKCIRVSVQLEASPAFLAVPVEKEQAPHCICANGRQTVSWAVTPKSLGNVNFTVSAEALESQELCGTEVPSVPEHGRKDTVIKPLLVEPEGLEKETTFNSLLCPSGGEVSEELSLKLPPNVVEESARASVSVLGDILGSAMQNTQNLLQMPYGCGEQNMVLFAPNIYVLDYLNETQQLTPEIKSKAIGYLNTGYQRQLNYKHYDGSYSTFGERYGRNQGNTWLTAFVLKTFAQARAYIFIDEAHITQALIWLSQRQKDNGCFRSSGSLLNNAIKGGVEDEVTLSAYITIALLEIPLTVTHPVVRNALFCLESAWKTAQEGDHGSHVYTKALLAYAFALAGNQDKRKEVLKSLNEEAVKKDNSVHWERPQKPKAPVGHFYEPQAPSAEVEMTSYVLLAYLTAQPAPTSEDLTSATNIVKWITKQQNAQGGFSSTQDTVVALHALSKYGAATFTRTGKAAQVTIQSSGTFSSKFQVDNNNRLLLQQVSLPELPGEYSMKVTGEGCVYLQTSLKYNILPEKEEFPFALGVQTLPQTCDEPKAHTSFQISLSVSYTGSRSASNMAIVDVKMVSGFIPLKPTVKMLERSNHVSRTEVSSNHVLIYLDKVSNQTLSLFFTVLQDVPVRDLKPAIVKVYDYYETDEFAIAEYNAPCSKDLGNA
Assay type: biochemical

Compound	inhibition of α2M deacylating activity [%]	inhibition of α2M deacylating activity (100 µM) [%]	Km [µM]	kcat [s⁻¹]
O=[N+]([O-])c1ccc(OP(=O)(O)Oc2ccc([N+](=O)[O-])cc2)cc1 [BNPP, bis-p-nitrophenyl-phosphate]	40	0	–	–
ghrelin-MCA: full length acylated ghrelin containing the fluorophore 7-methoxycoumarin-4-acetic acid (MCA) at the C-terminus (GSSFLSPEHQRVQQRKESKKPPAKLQPR-{MCA}; also: octanoyl acylated, position not given here; UniProt Q9UBU3 24-51, looked up)	–	–	24 ± 3	0.000383 ± 1.7e-05
